Values of other authors as cited in patent US5472628A, “Liquid detergents with an aryl acid for inhibition of proteolytic enzyme” (The Procter & Gamble Company, priority 1994, dated 1995).

Target: subtilisin
Settings: quoted in the description, read-out: Ki (inhibition constants of boronic acids for subtilisin)

OB(O)c1ccc(Br)cc1 [4-bromobenzene boronic acid]
Ki: 10 µM
